Assay results taken from ChEMBL document CHEMBL1154007, “Discovery and development of aurora kinase inhibitors as anticancer agents” (J Med Chem, 2009).
Where a name gives a salt, the structure may show the parent alone. Blank lines part the entries; values can stand above or below the compound they belong to.

Legend:
Aurora kinase B [1] = target: T1, Aurora kinase B (Homo sapiens, UniProt Q96GD4); experiment: Inhibition of aurora B in human SW620 cells assessed as inhibition of histone H3 phosphorylation; format: cell-based, SW-620
T1 sequence (Q96GD4 whole entry): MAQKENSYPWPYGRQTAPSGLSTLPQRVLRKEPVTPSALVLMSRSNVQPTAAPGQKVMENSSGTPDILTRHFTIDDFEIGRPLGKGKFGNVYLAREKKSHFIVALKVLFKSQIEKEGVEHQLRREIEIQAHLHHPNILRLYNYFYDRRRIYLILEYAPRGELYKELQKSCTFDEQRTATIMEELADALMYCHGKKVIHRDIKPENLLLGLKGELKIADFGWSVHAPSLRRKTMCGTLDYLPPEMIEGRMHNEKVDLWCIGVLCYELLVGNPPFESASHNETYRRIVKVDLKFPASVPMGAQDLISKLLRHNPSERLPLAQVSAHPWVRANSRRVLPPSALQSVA

Aurora kinase A = target: T2, Aurora kinase A (Homo sapiens, UniProt O14965)
T2 sequence (O14965 whole entry): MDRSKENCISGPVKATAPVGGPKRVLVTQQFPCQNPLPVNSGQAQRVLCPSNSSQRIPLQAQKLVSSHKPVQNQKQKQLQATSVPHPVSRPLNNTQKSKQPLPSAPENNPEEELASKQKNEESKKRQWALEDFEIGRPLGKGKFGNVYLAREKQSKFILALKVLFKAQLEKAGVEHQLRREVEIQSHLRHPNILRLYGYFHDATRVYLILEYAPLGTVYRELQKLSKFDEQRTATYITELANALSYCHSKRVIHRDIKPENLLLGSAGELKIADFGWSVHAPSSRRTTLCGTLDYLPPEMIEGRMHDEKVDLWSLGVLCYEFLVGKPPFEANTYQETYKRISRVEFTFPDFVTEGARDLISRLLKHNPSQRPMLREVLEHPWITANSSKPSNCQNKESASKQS

Aurora kinase B [2] = target: T1, Aurora kinase B; experiment: Inhibition of aurora B kinase
[3] = target: Proto-oncogene tyrosine-protein kinase Src (Homo sapiens, UniProt P12931); experiment: Inhibition of Src
Chain of Proto-oncogene tyrosine-protein kinase Src (P12931 2-536 limits assumed): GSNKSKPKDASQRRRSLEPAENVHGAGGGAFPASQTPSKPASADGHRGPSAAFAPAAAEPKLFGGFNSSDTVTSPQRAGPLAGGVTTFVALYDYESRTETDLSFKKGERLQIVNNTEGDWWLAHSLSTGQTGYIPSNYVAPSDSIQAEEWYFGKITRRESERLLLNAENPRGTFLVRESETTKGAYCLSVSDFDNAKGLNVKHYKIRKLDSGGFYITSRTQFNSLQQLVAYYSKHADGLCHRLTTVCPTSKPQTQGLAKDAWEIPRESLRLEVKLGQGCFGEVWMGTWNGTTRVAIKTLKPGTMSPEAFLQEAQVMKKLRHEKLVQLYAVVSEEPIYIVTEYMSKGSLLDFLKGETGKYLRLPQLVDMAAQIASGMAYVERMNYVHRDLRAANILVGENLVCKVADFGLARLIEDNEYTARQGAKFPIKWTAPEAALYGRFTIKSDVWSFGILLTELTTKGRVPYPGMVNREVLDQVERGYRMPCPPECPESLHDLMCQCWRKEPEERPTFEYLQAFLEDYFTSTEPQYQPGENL

[4] = target: Glycogen synthase kinase-3 beta (Homo sapiens, UniProt P49841); experiment: Inhibition of Gsk3beta
Chain of Glycogen synthase kinase-3 beta (P49841 whole entry): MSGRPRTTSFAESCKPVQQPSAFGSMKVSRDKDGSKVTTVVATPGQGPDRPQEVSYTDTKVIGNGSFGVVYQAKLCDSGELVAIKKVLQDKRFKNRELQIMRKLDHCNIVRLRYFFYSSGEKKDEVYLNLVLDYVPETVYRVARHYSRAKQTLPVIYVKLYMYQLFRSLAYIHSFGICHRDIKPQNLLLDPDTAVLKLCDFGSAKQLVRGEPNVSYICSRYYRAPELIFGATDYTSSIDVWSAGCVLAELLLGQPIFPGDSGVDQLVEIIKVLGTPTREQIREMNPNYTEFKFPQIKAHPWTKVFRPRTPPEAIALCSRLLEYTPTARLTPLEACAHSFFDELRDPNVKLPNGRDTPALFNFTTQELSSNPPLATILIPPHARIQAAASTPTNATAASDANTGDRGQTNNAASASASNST

COLO 205 = experiment: Antiproliferative activity against human COLO205 cells assessed as inhibition of thymidine uptake after 96 hrs; format: functional, cell-based; settings: COLO 205, 96 h
HCT-116 = experiment: Antiproliferative activity against human HCT116 cells assessed as BrdU incorporation after 72 hrs; format: functional, cell-based; settings: HCT-116, 72 h
[5] = Aqueous solubility at pH 7.4; format: physicochemical
[6] = Clearance in iv dosed rat; format: ADME, organism-based; settings: in vivo
[7] = Half life in iv dosed rat; format: ADME, organism-based; settings: in vivo
Rattus norvegicus = species: Rattus norvegicus; experiment: Antitumor activity in rat assessed as inhibition of tumor volume; format: functional
[8] = Volume of distribution at steady state in iv dosed rat; format: ADME, organism-based; settings: in vivo, read-out: Vdss
[9] = Bioavailability in […] rat; format: ADME, organism-based; settings: in vivo
[10] = Toxicity in po dosed rat assessed at maximum tolerated dose after 2 weeks; format: organism-based; settings: in vivo
[11] = target: Tyrosine-protein kinase Lck (Homo sapiens, UniProt P06239); experiment: Inhibition of Lck
Chain of Tyrosine-protein kinase Lck (P06239 whole entry): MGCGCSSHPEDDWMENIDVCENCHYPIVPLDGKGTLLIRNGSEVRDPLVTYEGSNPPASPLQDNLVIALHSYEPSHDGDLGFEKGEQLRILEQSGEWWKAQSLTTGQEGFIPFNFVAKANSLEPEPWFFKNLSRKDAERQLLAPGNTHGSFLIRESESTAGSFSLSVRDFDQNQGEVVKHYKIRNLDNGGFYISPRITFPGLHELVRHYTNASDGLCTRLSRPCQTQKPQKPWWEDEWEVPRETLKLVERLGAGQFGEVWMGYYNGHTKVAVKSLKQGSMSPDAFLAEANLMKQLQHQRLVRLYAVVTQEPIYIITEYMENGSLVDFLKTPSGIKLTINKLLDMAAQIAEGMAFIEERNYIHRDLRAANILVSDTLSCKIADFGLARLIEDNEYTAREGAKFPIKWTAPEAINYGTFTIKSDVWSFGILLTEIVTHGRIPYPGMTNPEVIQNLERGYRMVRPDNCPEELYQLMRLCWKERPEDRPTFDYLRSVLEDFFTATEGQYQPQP

Aurora kinase C = target: T3, Aurora kinase C (Homo sapiens, UniProt Q9UQB9); experiment: Inhibition of aurora C kinase
T3 sequence (Q9UQB9 whole entry): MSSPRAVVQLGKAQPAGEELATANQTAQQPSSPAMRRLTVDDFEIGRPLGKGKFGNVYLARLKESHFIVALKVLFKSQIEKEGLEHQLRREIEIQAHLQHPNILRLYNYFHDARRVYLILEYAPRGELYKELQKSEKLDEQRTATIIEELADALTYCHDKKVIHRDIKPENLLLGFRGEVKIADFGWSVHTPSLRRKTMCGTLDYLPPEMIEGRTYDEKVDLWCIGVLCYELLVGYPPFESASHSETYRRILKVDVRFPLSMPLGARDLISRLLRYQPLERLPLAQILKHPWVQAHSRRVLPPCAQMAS

[12] = Clearance in iv infused tumor bearing mouse; format: ADME, organism-based; settings: in vivo
A2780 = experiment: Antiproliferative activity against human A2780 cells assessed as accumulation of 4N DNA; format: functional, cell-based
[13] = Volume of distribution in iv infused tumor bearing mouse; format: ADME, organism-based; settings: in vivo
[14] = Elimination half life in iv infused tumor bearing mouse; format: ADME, organism-based; settings: in vivo, read-out: beta t1/2 (converted)
[15] = Drug level in tumor bearing mouse tumor at 30 mg/kg after 24 hrs; format: ADME, organism-based, Neoplasm; set-up: dose 30 mg/kg; settings: read-out: Activity
[16] = Drug level in tumor bearing mouse plasma at 30 mg/kg after 24 hrs; format: ADME, organism-based; set-up: dose 30 mg/kg; settings: read-out: Activity
Homo sapiens = experiment: Drug elimination in human patient after 5 days of iv infusion; format: ADME, organism-based; settings: in vivo, 120 h

- IC50 (Aurora kinase B [1]): 45 nM
- IC50 (Aurora kinase A): 360 nM
- IC50 (Aurora kinase B [2]): < 1 nM
SMILES: CCN(CCO)CCCOc1cc2ncnc(Nc3cc(CC(=O)Nc4cccc(F)c4F)[nH]n3)c2cc1OC

- IC50 (Aurora kinase B [1]): 270 nM
- IC50 (Aurora kinase A): 190 nM
- IC50 (Aurora kinase B [2]): 1 nM
SMILES: CCN(CCO)CCCOc1cc2ncnc(Nc3cc(CC(=O)Nc4cccc(F)c4)[nH]n3)c2cc1OC

- IC50 (Aurora kinase A): 800 nM
- IC50 (Aurora kinase B [2]): 7.5 nM
SMILES: CCN(CCO)CCCOc1ccc2c(Nc3cc(CC(=O)Nc4cccc(F)c4F)[nH]n3)ncnc2c1

- IC50 (Aurora kinase B [1]): < 1 nM
- IC50 (Aurora kinase A): 18 nM
- IC50 (Aurora kinase B [2]): < 1 nM
SMILES: COc1cc2c(Nc3cc(CC(=O)Nc4cccc(F)c4F)[nH]n3)ncnc2cc1OCCCN(CCO)CC(C)C

- IC50 (Aurora kinase B [1]): 290 nM
- IC50 (Aurora kinase A): 220 nM
- IC50 (Aurora kinase B [2]): 2 nM
SMILES: CCCN(CCO)CCCOc1cc2ncnc(Nc3cc(CC(=O)Nc4cccc(F)c4)[nH]n3)c2cc1OC

- Ki [3]: 81 nM
- Ki [4]: 22 nM
- IC50 (COLO 205): 1400 nM
- Ki (Aurora kinase A): 58 nM
SMILES: Cc1cc(Nc2nc(-c3ccccc3)nc3ccccc23)n[nH]1

- IC50 (Aurora kinase B [2]): 1 nM
SMILES: COc1cc2c(Nc3cnc(NC(=O)c4ccccc4)nc3)ncnc2cc1OCCCN1CCOCC1

- EC50 (HCT-116): 13 nM
SMILES: O=C(Nc1cccc(C(F)(F)F)c1)Nc1ncc(CCNc2ncnc3ccsc23)s1

- EC50 (HCT-116): 45 nM
SMILES: O=C(Nc1ccccc1)Nc1ncc(CCNc2ncnc3ccsc23)s1

- IC50 (Aurora kinase A): 4 nM
- IC50 (Aurora kinase B [2]): 42 nM
SMILES: COc1cc2c(Nc3ncc(C(=O)Nc4ccccc4)s3)ncnc2cc1OCCCN1CCOCC1

- solubility [5]: 5.4 µM
- IC50 (COLO 205): 135 nM
- IC50 (Aurora kinase A): 1.7 nM
- IC50 (Aurora kinase B [2]): 14 nM
SMILES: CCC(=O)Nc1ccc(Sc2nc(Nc3cc(C)n[nH]3)cc(N3CCOCC3)n2)cc1

- solubility [5]: 296 µM
- IC50 (COLO 205): 79 nM
- IC50 (Aurora kinase A): 3.7 nM
- IC50 (Aurora kinase B [2]): 18 nM
SMILES: CCC(=O)Nc1ccc(Sc2nc(Nc3cc(C)n[nH]3)cc(N3CCNCC3)n2)cc1

- solubility [5]: 221 µM
- IC50 (COLO 205): 2 nM
- IC50 (Aurora kinase A): 1.3 nM
- IC50 (Aurora kinase B [2]): 11 nM
SMILES: CCC(=O)Nc1ccc(Sc2nc(Nc3cc(C)n[nH]3)cc(N3CCN(C(C)(C)C)CC3)n2)cc1

- IC50 (HCT-116): 2000 nM
SMILES: CC(C)(C)c1ccc(C(=O)Nc2n[nH]c3c2CN(C(=O)Cc2cccs2)C3)cc1

- IC50 (Aurora kinase A): 182 nM
- IC50 (Aurora kinase B [2]): 530 nM
SMILES: COc1cc2c(Nc3nc(C(=O)Nc4ccccc4)cs3)ncnc2cc1OCCCN1CCOCC1

- solubility [5]: 63.4 µM
- IC50 (COLO 205): 24 nM
- IC50 (Aurora kinase A): 1.6 nM
- IC50 (Aurora kinase B [2]): 20 nM
SMILES: CCC(=O)Nc1ccc(Sc2nc(Nc3cc(C)[nH]n3)cc(N3CCN(C)CC3)n2)cc1

SMILES: CC(=O)Nc1ccc(Sc2nc(Nc3cc(C)n[nH]3)c3ccccc3n2)cc1
- clearance [6]: 7 mL/min
- half-life [7]: 60 min
- Ki [3]: 1260 nM
- inhibition (INH) (Rattus norvegicus): 50%
- Vd [8]: 0.38 L/kg
- bioavailability [9]: 44%
- Ki [4]: 1030 nM
- IC50 (COLO 205): 480 nM
- Ki (Aurora kinase A): 4 nM
- Ki (Aurora kinase B [2]): 27 nM
- MTD at 336 h [10]: 300 mg/kg

- solubility [5]: 2.5 µg/mL
- IC50 (COLO 205): 400 nM
- IC50 (Aurora kinase A): 1.6 nM
- IC50 (Aurora kinase B [2]): 8 nM
SMILES: CCC(=O)Nc1ccc(Sc2nc(Nc3cc(C)n[nH]3)cc(N3CCCCC3)n2)cc1

- solubility [5]: 12.8 µM
- IC50 (COLO 205): 75 nM
- IC50 (Aurora kinase A): < 1 nM
- IC50 (Aurora kinase B [2]): 9.5 nM
SMILES: CCC(=O)Nc1ccc(Sc2nc(Nc3cc(C)n[nH]3)cc(N3CCN(C4CC4)CC3)n2)cc1

- IC50 (Aurora kinase A): 11 nM
- IC50 (Aurora kinase B [2]): 57 nM
SMILES: COc1cc2c(Nc3ccc(C(=O)Nc4ccccc4)s3)ncnc2cc1OCCCN1CCOCC1

- solubility [5]: 114 µM
- IC50 (COLO 205): 24 nM
- IC50 (Aurora kinase A): < 1 nM
- IC50 (Aurora kinase B [2]): 25 nM
SMILES: CCC(=O)Nc1ccc(Sc2nc(Nc3cc(C)n[nH]3)cc(N3CCN(CC)CC3)n2)cc1

- IC50 (HCT-116): 570 nM
SMILES: CN1CCN(c2ccc(C(=O)Nc3n[nH]c4c3CN(C(=O)Cc3cccs3)C4)cc2)CC1

- IC50 (Aurora kinase A): < 1 nM
- IC50 (Aurora kinase B [2]): < 1 nM
SMILES: COc1cc2c(Nc3ncc(CC(=O)Nc4ccccc4)s3)ncnc2cc1OCCCN1CCOCC1

- IC50 [11]: 320 nM
SMILES: COc1cc(Nc2ncc3c(n2)-c2ccc(Cl)cc2C(c2c(F)cccc2OC)=NC3)ccc1C(=O)O [ALISERTIB]

- IC50 (Aurora kinase B [2]): 3 nM
SMILES: O=C(Nc1c[nH]nc1-c1nc2cc(CN3CCOCC3)ccc2[nH]1)NC1CC1 [AT-9283]

- clearance [6]: 14 mL/min/kg
- half-life [7]: 300 min
SMILES: CCN(CCCOc1ccc2c(Nc3cc(CC(=O)Nc4cccc(F)c4)n[nH]3)ncnc2c1)CCOP(=O)(O)O [BARASERTIB]

- IC50 (Aurora kinase C): 65 nM
SMILES: Cc1nc(N)sc1-c1ccnc(Nc2ccc(N3CCOCC3)cc2)n1 [CYC-116]

SMILES: CO[C@@H](C(=O)N1Cc2n[nH]c(NC(=O)c3ccc(N4CCN(C)CC4)cc3)c2C1)c1ccccc1 [DANUSERTIB]
- clearance [12]: 28.3 mL/min/kg
- IC50 (A2780): 28 µM
- Vd [13]: 2.7 L/kg
- half-life [14]: 222 min

- concentration at 24 h [15]: > 2000 nM
- concentration at 24 h [16]: > 1000 nM
SMILES: O=C(O)c1ccc(Nc2ncc3c(n2)-c2ccc(Cl)cc2C(c2c(F)cccc2F)=NC3)cc1 [MLN-8054]

- EC50 (HCT-116): 6 nM
SMILES: O=C(Nc1cccc(Cl)c1)Nc1ncc(CCNc2ncnc3ccsc23)s1 [SNS-314 MESYLATE]

- Activity (Homo sapiens): 75%
SMILES: Cc1cc(Nc2cc(N3CCN(C)CC3)nc(Sc3ccc(NC(=O)C4CC4)cc3)n2)[nH]n1 [TOZASERTIB]
